Assays:
[1] = test system: NMDARs of spinally projecting PVN neurons; experiment: Recordings of spinally projecting PVN neurons in WT and Cacna2d1 KO mouse slices (Ang II); assay type: cell-based; conditions: Ang II 2 μmol/L
Text: Animals: 10- to 12-week-old male Sprague Dawley rats were used (Harlan Sprague Dawley, Indianapolis, Ind.) and both male and female mice (C57BL/6 genetic background) in the experiments. Two breeding pairs of Cacna2d1+/− mice were purchased from Medical Research Council (Harwell Didcot, Oxfordshire, UK), and Cacna2d1−/− (knockout) mice and Cacna2d1+/+ (wild-type) littermates were obtained by breeding the heterozygous mice. Because no sex differences were found in the effect of Ang II on synaptic NMDAR activity, electrophysiological data from male and female mice were pooled. All surgical preparation and experimental protocols were approved by the Animal Care and Use Committee of The University of Texas MD Anderson Cancer Center and conformed to the National Institutes of Health guidelines for the ethical use of animals. All efforts were made to minimize both the suffering and number of animals used.
Retrograde labeling of spinally projecting PVN neurons: Rats or mice were anesthetized with 2-3% isoflurane, and their spinal cords at the T1-T4 level were exposed through dorsal laminectomy. A fluorescent microsphere suspension (FluoSpheres, 0.04 μm; Molecular Probes, Invitrogen, Eugene, Oreg.) was pressure ejected (Nanoject II Microinjectors, Drummond Scientific Company, Broomall, Pa.) bilaterally into the IML region of the spinal cord in six separate 50-nl injections using a glass micropipette (tip diameter, 20-30 μm). The tracer injection was monitored through a surgical microscope (Li et al., 2002, 2003). The wound was closed with sutures after injection. Animals were returned to their cages for 4-7 days, which was sufficient time to permit the tracer to be retrogradely transported to the PVN. The animals were inspected daily for motor activity, signs of infection, and food and water intake.
Brain slice preparation: Four to seven days after fluorescent tracer injection, the animals were anesthetized with isoflurane and rapidly decapitated. The brain was quickly removed and placed in ice-cold artificial CSF (aCSF) saturated with 95% O2 and 5% CO2. A tissue block containing the hypothalamus was cut from the brain and glued onto the stage of a vibratome (Leica VT1000 S, Leica Biosystems Inc. Buffalo Grove, Ill.) as described previously (Li et al., 2003; Ye et al., 2011). […]
Electrophysiological recordings: The fluorescence-labeled neurons located in the medial one-third of the PVN area between the third ventricle and the fornix were selected for recording (Li et al., 2002, 2003). […]
The miniature excitatory postsynaptic currents (mEPSCs) were recorded in the presence of 1 μmol/L tetrodotoxin (TTX) and 20 μmol/L bicuculline at a holding potential of −60 mV (Li et al., 2003; Ye et al., 2011). […]

paclitaxel-treated rats = experiment: Paclitaxel-induced pain hypersensitivity in rats; assay type: in vivo, rat; conditions: intrathecal 5 μg pregabalin, 1 μg peptides
Method: To induce neuropathic pain, rats and mice were intraperitoneally injected with paclitaxel (2 mg/kg; TEVA Pharmaceuticals, North Wales, Pa.) every 2 days for a total of 4 injections (days 1, 3, 5 and 7; total dose, 8 mg/kg), as described previously (Polomano et al., 2001). Animals in the control group were intraperitoneally injected with the vehicle (Cremophor EL/ethanol, 1:1) on the same 4 days. The presence of tactile allodynia was confirmed 10 to 12 days after drug treatment. Intrathecal catheters were implanted in some paclitaxel-treated rats during isoflurane-induced anesthesia. Briefly, a small puncture was made in the atlanto-occipital membrane of the cisterna magna and inserted a PE-10 catheter with the caudal tip reaching the lumbar enlargement of the spinal cord (Chen et al., 2014a; Xie et al., 2016).
Behavioral assessment of nociception: To measure tactile allodynia, mice or rats were individually placed on a mesh floor within a suspended chamber. […]
To quantify the mechanical nociceptive threshold in rats, the paw pressure (Randall-Selitto) test was conducted on the left hindpaw using an analgesiometer (Ugo Basile, Varese, Italy). […] When the rat withdrew its paw or vocalized, the pedal was immediately released, and the withdrawal threshold was recorded (Chen et al., 2014a). […]
To assess the thermal sensitivity of rats, the were placed individually on the glass surface of a thermal testing apparatus (IITC Life Sciences, Woodland Hills, Calif.). […] The paw withdrawal latency was recorded with a timer, and the hindpaw was tested twice to obtain an average time. […] After the threshold temperature was recorded, the mice were immediately removed from the plate. The heat threshold measurement was repeated 30 min later, and the average of the 2 recorded temperatures was considered as the heat threshold. The cold threshold was measured by cooling the plate from 30° C. at a rate of 6° C./min until nocifensive behaviors were observed. […]

For “Ang II: angiotensin II, obtained from Sigma (DRVYIHPF; Angiotensin-2; UniProt P01019 25-32, looked up)”, the “amplitude of puff NMDA-elicited currents” value ([1]; Cacna2d1−/− mice) was “had no effect”, the “frequency of mEPSCs” value ([1]; Cacna2d1−/− mice) was “had no effect” and the “NMDAR-mediated frequency of mEPSCs” value ([1]; wild-type mice) was “markedly increased”. The “amplitude of puff NMDA-elicited currents” value ([1]; wild-type mice) was “markedly increased”.

With “YGRKKRRQRRRVSGLNPSLWSIFGLQFILLWLVSGSRHYLW (a2d1 peptide) [α2δ-1Tat peptide, 30-amino-acid peptide mimicking the C-terminal domain of α2δ-1 fused to the cell-penetrating peptide Tat]” the “paclitaxel-induced pain hypersensitivity (tactile allodynia, mechanical and thermal hyperalgesia)” value (paclitaxel-treated rats) was “markedly attenuated”.
